Measurements published in ChEMBL document CHEMBL4483862, “Open-source discovery of chemical leads for next-generation chemoprotective antimalarials” (2018).

Test system: Plasmodium berghei
Assay: Luciferase/luciferin-expressing antifolate-resistant parasites were used to infect a culture of HepG2 cells that were pre-incubated with compounds. Infected hepatocytes emit light due to the luciferase reaction. Assay results are presented as the percent inhibition of light emission compared to control. […]
Format: functional
Conditions: sporozoite; for IC90: read-out: LUCIFERASE INFECTION ASSAY - IC90
[1] = read-out: LUCIFERASE INFECTION ASSAY - IC50

| Structure (SMILES) | IC90 [µM] | IC50 [1] [µM] | also measured |
| --- | --- | --- | --- |
| FC(F)(F)Oc1cccc(-c2cnc3cnc(-c4cccnc4)cn23)c1 | > 9.26 |  | IC50 (PBLUC_HILL_SLOPE 14.8, PBLUC_R_SQUARED 0.205, read-out: LUCIFERASE INFECTION ASSAY - IC50): 8.62 µM |
| Cc1c(C)n(Cc2ccccc2)c2ncn3nc(-c4ccccn4)nc3c12 | > 9.31 | > 9.31 |  |
| O=C1C=C(c2ccccc2)C(=O)N1Nc1ccccc1 | > 12.5 | > 12.5 |  |
| O=S(=O)(Oc1cccc2[nH]ccc12)c1ccc(Cl)cc1Cl | > 9.64 | > 9.64 |  |
| O=C1NC(c2c(-c3ccccc3)[nH]c3ccccc23)Nc2ccccc21 (stereo not drawn) | 1.21 |  | IC50 (HEPG2TOX_HILL_SLOPE 1.35, HEPG2TOX_R_SQUARED 0.878, PBLUC_HILL_SLOPE 2.2, PBLUC_R_SQUARED 0.804, read-out: LUCIFERASE INFECTION ASSAY - IC50): 0.447 µM |
| COCC(C)n1c(C)cc(C(=O)CSc2ncnc3sc(C)c(C)c23)c1C (stereo not drawn) | > 10 | > 10 |  |
| COc1ccc(NC(C)=O)cc1Nc1ncnc2scc(-c3ccccc3)c12 | > 10 |  | IC50 (PBLUC_HILL_SLOPE 3.37, PBLUC_R_SQUARED 0.17, read-out: LUCIFERASE INFECTION ASSAY - IC50): 9.19 µM |
| NC(CCc1ccccc1)c1csc(Nc2ccc(C(=O)NCc3ccco3)cn2)n1 (stereo not drawn) | 7.53 |  | IC50 (HEPG2TOX_HILL_SLOPE 15.2, HEPG2TOX_R_SQUARED 0.624, PBLUC_HILL_SLOPE 17, PBLUC_R_SQUARED 0.625, read-out: LUCIFERASE INFECTION ASSAY - IC50): 6.62 µM |
| Cc1nc(Sc2nnnn2-c2ccccc2)c2c3c(sc2n1)CCC3 | > 10 |  | IC50 (HEPG2TOX_HILL_SLOPE 9.14, HEPG2TOX_R_SQUARED 0.239, read-out: LUCIFERASE INFECTION ASSAY - IC50): > 10 µM |
| CN1CCN(c2ccc(-c3cn4c(-c5ccccc5)cnc4cn3)cn2)CC1 | 7.71 |  | IC50 (PBLUC_HILL_SLOPE 3.35, PBLUC_R_SQUARED 0.57, read-out: LUCIFERASE INFECTION ASSAY - IC50): 4 µM |
| NC(=S)N/N=C/c1ncc(C(F)(F)F)cc1Cl | 4.07 |  | IC50 (HEPG2TOX_HILL_SLOPE 1.78, HEPG2TOX_R_SQUARED 0.942, PBLUC_HILL_SLOPE 40.1, PBLUC_R_SQUARED 0.426, read-out: LUCIFERASE INFECTION ASSAY - IC50): 3.85 µM |
| COc1ccc(C2c3ccc4ccccc4c3OC(=N)C2C#N)cc1 (stereo not drawn) | > 10 | > 10 |  |
| COc1cccc(C(=O)CC2C(=O)Nc3ccccc32)c1 (stereo not drawn) | 11.4 |  | IC50 (HEPG2TOX_HILL_SLOPE 18.2, HEPG2TOX_R_SQUARED 0.892, PBLUC_HILL_SLOPE 11.5, PBLUC_R_SQUARED 0.65, read-out: LUCIFERASE INFECTION ASSAY - IC50): 9.38 µM |
| O=C(c1ccco1)N1CCc2nc(NCc3cccc(Cl)c3)ncc2C1 | 8.86 |  | IC50 (PBLUC_HILL_SLOPE 14.7, PBLUC_R_SQUARED 0.24, read-out: LUCIFERASE INFECTION ASSAY - IC50): 7.63 µM |
| CCOC(=O)c1cnc(SC(C)C(=O)Nc2nc(-c3ccccc3)cs2)nc1N (stereo not drawn) | > 10 |  | IC50 (HEPG2TOX_HILL_SLOPE 0.514, HEPG2TOX_R_SQUARED 0.73, PBLUC_HILL_SLOPE 0.707, PBLUC_R_SQUARED 0.324, read-out: LUCIFERASE INFECTION ASSAY - IC50): 4.44 µM |
| Cc1onc(-c2ccccc2)c1-c1ccnn1C(=O)Nc1cccc(C(F)(F)F)c1 | > 8 |  | IC50 (PBLUC_HILL_SLOPE 13.1, PBLUC_R_SQUARED 0.207, read-out: LUCIFERASE INFECTION ASSAY - IC50): 7.19 µM |
| O=[N+]([O-])c1cc(Cl)ccc1N1CCN(c2ncnc3sc4c(c23)CCC4)CC1 | > 10 |  | IC50 (FFLUC_HILL_SLOPE 15.4, FFLUC_R_SQUARED 0.646, read-out: LUCIFERASE INFECTION ASSAY - IC50): > 10 µM |
| C=CCc1ccccc1OCC(O)CNC(C)(C)CC(C)(C)C (stereo not drawn) | 4.91 |  | IC50 (HEPG2TOX_HILL_SLOPE 15.1, HEPG2TOX_R_SQUARED 0.905, PBLUC_HILL_SLOPE 217, PBLUC_R_SQUARED 0.361, read-out: LUCIFERASE INFECTION ASSAY - IC50): 4.86 µM |
| Cn1c(NCc2ccccc2F)nc2cnc(-c3ccc4c(c3)OCO4)cc21 | 5.21 |  | IC50 (HEPG2TOX_HILL_SLOPE 10, HEPG2TOX_R_SQUARED 0.935, PBLUC_HILL_SLOPE 10.5, PBLUC_R_SQUARED 0.0559, read-out: LUCIFERASE INFECTION ASSAY - IC50): 4.23 µM |
| CC(=O)c1cccc(-c2cnc3ccc(-c4ccoc4)nn23)c1 | 6.77 |  | IC50 (HEPG2TOX_HILL_SLOPE 0.314, HEPG2TOX_R_SQUARED 0.72, PBLUC_HILL_SLOPE 2.12, PBLUC_R_SQUARED 0.552, read-out: LUCIFERASE INFECTION ASSAY - IC50): 2.41 µM |
| O=C(CN(Cc1ccccc1Cl)S(=O)(=O)/C=C/c1ccccc1)Nc1ccc(F)cc1Cl | > 10 | > 10 |  |
| COCCNC(=O)Cn1nnc(C)c1COc1ccc2ccccc2c1 | > 9.31 | > 9.31 |  |

| Structure (SMILES) | IC90 [µM] | IC50 [1] [µM] | also measured |
| --- | --- | --- | --- |
| CN(Cc1ccc2c(c1)OCCO2)C(=O)c1ccc(NC(=O)C23CC4CC(CC(C4)C2)C3)cc1 | > 10 |  | IC50 (PBLUC_HILL_SLOPE 12.4, PBLUC_R_SQUARED 0.0833, read-out: LUCIFERASE INFECTION ASSAY - IC50): > 10 µM |
| Cc1ccc(NC(=O)c2cc(-c3cc(Cl)ccc3C)[nH]n2)cc1NS(C)(=O)=O | 7.29 |  | IC50 (PBLUC_HILL_SLOPE 10.6, PBLUC_R_SQUARED 0.45, read-out: LUCIFERASE INFECTION ASSAY - IC50): 5.92 µM |
| Cc1ccc(-c2csc(NC(=O)/C=C/c3cnn(C)c3)n2)o1 | 4.35 |  | IC50 (HEPG2TOX_HILL_SLOPE 1.69, HEPG2TOX_R_SQUARED 0.984, PBLUC_HILL_SLOPE 1.61, PBLUC_R_SQUARED 0.8, read-out: LUCIFERASE INFECTION ASSAY - IC50): 1.11 µM |
| CCc1ccc(C(CNC(=O)c2ccc3c(=O)n(-c4ccccc4F)c(=S)[nH]c3c2)N(C)C)cc1 (stereo not drawn) | > 10 |  | IC50 (PBLUC_HILL_SLOPE 11.1, PBLUC_R_SQUARED 0.257, read-out: LUCIFERASE INFECTION ASSAY - IC50): 9.21 µM |
| CC(C)C(=O)Nc1c(-c2ccc(Cl)c(Cl)c2)c(=O)c2ccccc2n1C | 3.11 |  | IC50 (PBLUC_HILL_SLOPE 11.7, PBLUC_R_SQUARED 0.375, read-out: LUCIFERASE INFECTION ASSAY - IC50): 2.58 µM |
| O=C(NC1CC1)c1ccc(CN(C2CC2)S(=O)(=O)c2ccccc2[N+](=O)[O-])cc1 | 3.74 | 3.41 |  |
| CCN(CC)c1ccc(/C=N/NC(=S)NCC2CCCO2)c(O)c1 (stereo not drawn) | > 10 |  | IC50 (HEPG2TOX_HILL_SLOPE 16.0, 27.0, HEPG2TOX_R_SQUARED 0.190, 0.836, PBLUC_HILL_SLOPE 15.6, PBLUC_R_SQUARED 0.223, read-out: LUCIFERASE INFECTION ASSAY - IC50): 8.89 µM |
| O=C(Nc1ncccc1O)c1ccc(N2CCOCC2)nc1 | 4.08 |  | IC50 (FFLUC_HILL_SLOPE 6.17, FFLUC_R_SQUARED 0.111, PBLUC_HILL_SLOPE 1.25, PBLUC_R_SQUARED 0.907, read-out: LUCIFERASE INFECTION ASSAY - IC50): 0.705 µM |
| O=C1C=CC(=O)N1c1cccc2ccccc12 | > 14.8 | > 14.8 |  |
| O=C(NNC(=S)Nc1cccc(C(F)(F)F)c1)c1cccn1-c1ccc(F)cc1 | > 7.81 |  | IC50 (HEPG2TOX_HILL_SLOPE 5.96, HEPG2TOX_R_SQUARED 0.739, PBLUC_HILL_SLOPE 1.03, PBLUC_R_SQUARED 0.767, read-out: LUCIFERASE INFECTION ASSAY - IC50): > 7.81 µM |
| O=C(Nc1ccccc1C(=O)Nc1nc2ccccc2[nH]1)c1cccs1 | > 10 |  | IC50 (HEPG2TOX_HILL_SLOPE 2.23, HEPG2TOX_R_SQUARED 0.95, read-out: LUCIFERASE INFECTION ASSAY - IC50): > 10 µM |
| Cc1ccc(S(=O)(=O)N(C)Cc2ccc(-c3nnc4n3-c3ccccc3SC4)cc2)cc1 | > 10 | 3.08 |  |
| NC(=O)c1cccc(-c2cn3c(-c4cccc(OC(F)(F)F)c4)cnc3cn2)c1 | 8.06 |  | IC50 (PBLUC_HILL_SLOPE 12.4, PBLUC_R_SQUARED 0.473, read-out: LUCIFERASE INFECTION ASSAY - IC50): 6.74 µM |
| COc1cc(C)ccc1Oc1ccc(NC(=O)NC2CCN3CCCCC23)cn1 (stereo not drawn) | > 10 | > 10 |  |
| O=C(CNc1ccc(Oc2ccc(Br)cc2)cc1)NC1CC1 | > 10 | > 10 |  |
| CCOC(=O)c1nc(N(CCc2ccccc2)C(=O)c2cccnc2SC)sc1C | > 10 | > 10 |  |
| CCOc1ccc(-n2c(SCC(=O)c3c(N)n(C)c(=O)n(C)c3=O)nnc2-c2ccccc2Cl)cc1 | 3.67 | 3.28 |  |
| NS(=O)(=O)c1ccc(CCNc2cc(-c3ccccc3)c3cc4c(cc3n2)OCCO4)cc1 | 6.08 | 3.43 |  |
| CCC1CCc2sc(C(=O)Nc3ccccc3O)cc2C1 (stereo not drawn) | > 10 |  | IC50 (PBLUC_HILL_SLOPE 24.2, PBLUC_R_SQUARED 0.273, read-out: LUCIFERASE INFECTION ASSAY - IC50): 9.71 µM |
| COc1ccc(Oc2ccc(/C=C/C(=O)c3ccc(N4CCN(C)CC4)cc3)cc2[N+](=O)[O-])cc1 | 4.34 |  | IC50 (HEPG2TOX_HILL_SLOPE 14.7, HEPG2TOX_R_SQUARED 0.729, PBLUC_HILL_SLOPE 20.7, PBLUC_R_SQUARED 0.331, read-out: LUCIFERASE INFECTION ASSAY - IC50): 3.9 µM |
| COc1ccc(S(=O)(=O)N(Cc2ccc(C(=O)NC3CC3)cc2)C2CC2)cc1OC | 7.7 |  | IC50 (PBLUC_HILL_SLOPE 1.44, PBLUC_R_SQUARED 0.778, read-out: LUCIFERASE INFECTION ASSAY - IC50): 1.68 µM |
| O=C(Oc1ccc(Cl)cc1Cc1ccccc1)c1ccccc1-c1ccc(C(F)(F)F)cc1 | > 10 |  | IC50 (PBLUC_HILL_SLOPE 2.87, PBLUC_R_SQUARED 0.0345, read-out: LUCIFERASE INFECTION ASSAY - IC50): 8.61 µM |
